Laboratory results: patent publication US10610524B2, “Cellular hydration compositions” (Eastpond Laboratories Limited, priority 2010, dated 2020)

Experiments:
[1] = test system: C. elegans nematodes; assay: Lifespan of C. elegans in hydration modified water media; type: in vivo; conditions: for Animals alive: USA I water; for effect on C. elegans survival: added to culture media, result in words
Protocol: C. elegans nematodes were grown in petri-type dishes containing normal nutrient liquid media prepared alternatively with USA I water (described in Example 2) lacking any further additive component (control) or the same water supplemented with a parent α-, β-, or γ-cyclodextrin, and/or a bioactive agent, as an active component of cellular hydration. Fifty±3 worms were transferred to each dish. Each condition was repeated in triplicate. Experiments were repeated for USA II and BP I waters described in Example 2. A. Addition of parent α-, β- and γ-cyclodextrins. B. Addition of L-arginine and nicotinamide. C. Addition of inclusion complexes of cyclodextrins with L-arginine and nicotinamide.

[2] = NIR spectroscopy of water bonding with cyclodextrin additives; type: physicochemical
Protocol: Hydration bond energies in pure waters and solutions of the same waters containing cyclodextrin compounds were assayed using IR spectroscopy in the near and middle infrared ranges. To record linear signals throughout an entire wavelength range, attenuation from water absorbance was minimized with a short optical length cuvette.
NIR range spectra were registered on a FOSS NIR Systems, Inc. 6500 spectrometer and Sample Transport Module (STM) using a 1 mm-es cuvette. […]
Three samples of water were used in the present study. A first water sample (USA I) was obtained from the U.S. and was purified by reverse osmosis, carbon filtration, ultraviolet light exposure, membrane filtration to 0.2 micron absolute, and ozonation. A second water sample (USA II) was also obtained from the U.S. A third water sample (BP I) was obtained from Budapest, Hungary.
The following cyclodextrins were added to the above described water samples at a concentration range of 0.1%-5% w/v: • α-cyclodextrin (αCD also denoted as ACD), Lot. No. CYL-2322. • β-cyclodextrin (βCD also denoted as BCD). Lot. No. CYL-2518/2. • γ-cyclodextrin (γCD also denoted as GCD), Lot. No. CYL-2323. • 2-hydroxypropyl-β-cyclodextrin (HPβCD, HPBCD), DS*=3.5, Lot. No. CYL-2232. • 2-hydroxypropyl-γ-cyclodextrin (HPCD, HPGCD), DS*=4.8, Lot. No. CYL-2258. • carboxymethyl-β-cyclodextrin (CMBCD), Lot. No. CYL-2576. • quaternary-ammonium-β-cyclodextrin (QABCD).

[3] = test system: Wheat seeds (Triticum aestivum); assay: Wheat seed germination kinetics in additive-modified water; type: in vivo; conditions: additive 0.5% w/v in USA I water
Protocol: Wheat seeds (Triticum aestivum) were germinated using USA I, USA II, and BP I waters described for Example 2. Germination rate using un-supplemented (control) water was compared to that with the same water variously supplemented with a cyclodextrin component, and/or a bioactive agent, as an active component of cellular hydration. For each condition, ten seeds were placed in continuous water contact in a Petri-type dish kept at 25 C in 12 hr light/dark cycles. Photometric images were recorded on days 1 to 6 after seeding. The percentage of seeds germinated was calculated and compared as a function of time and of the applied additive concentrations.
Water samples for seed germination were used alone with no additive, or containing cyclodextrins, or containing clathrate inclusion complexes of cyclodextrin with L-arginine or with nicotinamide (both obtained from Sigma Chemical Co.; St. Louis, Mo.), or with L-carnitine (from Lonza AG; Switzerland). […] Additive solutions were prepared fresh on the day of germination start.
Parent cyclodextrins α-cyclodextrin (ACD), β-cyclodextrin (BCD), and γ-cyclodextrin (GCD), were obtained from Wacker Chemie (Munich, Germany). The following derivatized cyclodextrins were obtained from Cyclolab Ltd. (Budapest, Hungary): hydroxypropylated-beta-cyclodextrin (DS˜3)(HPBCD), carboxymethylated-β-cyclodextrin (DS˜3.5)(CMBCD), 2-hydroxy-3-N,N,N-trimethylamino)propyl-β-cyclodextrin chloride (DS˜3.6)(QABCD).
Germination kinetics in control and additive-modified water under identical conditions were quantified as the percentage of the seeds having a sprout. Each determination consisted of 100 seeds for each parameter. Results are reported in Table 1, below, and in FIGS. 11-13.

[4] = life span 10 days, derivatized cyclodextrin 0.1% w/v in media, Table 4
[5] = life span 15 days, derivatized cyclodextrin 0.1% w/v in media, Table 4
[6] = life span 18 days, derivatized cyclodextrin 0.1% w/v in media, Table 4
[7] = wavelength region 900-1200 nm, FIG. 7
[8] = life span 10 days, parent cyclodextrin 0.1% w/v in media, Table 3
[9] = life span 15 days, parent cyclodextrin 0.1% w/v in media, Table 3
[10] = life span 18 days, parent cyclodextrin 0.1% w/v in media, Table 3

Molecule	Animals alive [1, 4]	Animals alive [1, 5]	Animals alive [1, 6]	water-bond interactions, second-derivative NIR spectra ([2]; 1200-1500 nm, FIG. 8)	water-bond interactions, second-derivative NIR spectra ([2]; 1620-1710 nm, FIG. 9)	water-bond interactions, second-derivative NIR spectra ([2]; 2170-2370 nm, FIG. 10)	water-bond interactions, second-derivative NIR spectra [2, 7]	Animals alive [1, 8]	Animals alive [1, 9]	Animals alive [1, 10]	other results
2-hydroxy-3-N,N,N-trimethylamino)propyl-β-cyclodextrin chloride [Quaternaryammonium-β-Cyclodextrin]	98 % of initial	13 % of initial	2 % of initial	significantly modified	significantly modified	further significantly modified	significantly modified	–	–	–	modified micro-structure of hydrogen bonds in bulk water (spectral changes), ranking of effect ([2]; among cyclodextrin-treated water samples, FIGS. 9 and 10): largest
OC[C@H]1O[C@@H]2O[C@H]3[C@H](O)[C@@H](O)[C@@H](O[C@H]4[C@H](O)[C@@H](O)[C@@H](O[C@H]5[C@H](O)[C@@H](O)[C@@H](O[C@H]6[C@H](O)[C@@H](O)[C@@H](O[C@H]7[C@H](O)[C@@H](O)[C@@H](O[C@H]8[C@H](O)[C@@H](O)[C@@H](O[C@H]9[C@H](O)[C@@H](O)[C@@H](O[C@H]1[C@H](O)[C@H]2O)O[C@@H]9CO)O[C@@H]8CO)O[C@@H]7CO)O[C@@H]6CO)O[C@@H]5CO)O[C@@H]4CO)O[C@@H]3CO [γ-Cyclodextrin, γ-cyclodextrin]	–	–	–	–	–	–	–	100 % of initial	13 % of initial	2 % of initial	–
CC(O)COC[C@H]1O[C@@H]2O[C@H]3[C@H](O)[C@@H](O)[C@@H](O[C@H]4[C@H](O)[C@@H](O)[C@@H](O[C@H]5[C@H](O)[C@@H](O)[C@@H](O[C@H]6[C@H](O)[C@@H](O)[C@@H](O[C@H]7[C@H](O)[C@@H](O)[C@@H](O[C@H]8[C@H](O)[C@@H](O)[C@@H](O[C@H]1[C@H](O)[C@H]2O)O[C@@H]8COCC(C)O)O[C@@H]7COCC(C)O)O[C@@H]6COCC(C)O)O[C@@H]5COCC(C)O)O[C@@H]4COCC(C)O)O[C@@H]3COCC(C)O (stereo partly drawn) [HP-β-Cyclodextrin, 2-hydroxypropyl-β-cyclodextrin]	96 % of initial	17 % of initial	0 % of initial	significantly modified	significantly modified	significantly modified	further significantly modified	–	–	–	–
NC(=O)c1cccnc1 [nicotinamide, reference compound]	–	–	–	–	–	–	–	–	–	–	wheat seed germination rate ([3]; day 0, Table 2): 0 percentage of the seeds; wheat seed germination rate ([3]; day 1, Table 2): 0 percentage of the seeds; wheat seed germination rate ([3]; day 2, Table 2): 4 percentage of the seeds; wheat seed germination rate ([3]; day 3, Table 2): 10 percentage of the seeds; wheat seed germination rate ([3]; day 4, Table 2): 60 percentage of the seeds; effect on C. elegans survival [1]: little effect
N=C(N)NCCC[C@H](N)C(=O)O [L-Arg, L-arginine, reference compound]	–	–	–	–	–	–	–	–	–	–	wheat seed germination rate ([3]; day 0, Table 1): 0 percentage of total seeds; wheat seed germination rate ([3]; day 1, Table 1): 0 percentage of total seeds; wheat seed germination rate ([3]; day 2, Table 1): 30 percentage of total seeds; wheat seed germination rate ([3]; day 3, Table 1): 45 percentage of total seeds; wheat seed germination rate ([3]; day 4, Table 1): 60 percentage of total seeds; effect on C. elegans survival [1]: little effect
carboxymethyl-β-cyclodextrin	94 % of initial	11 % of initial	0 % of initial	further significantly modified	significantly modified	significantly modified	further significantly modified	–	–	–	–
OC[C@H]1O[C@@H]2O[C@H]3[C@H](O)[C@@H](O)[C@@H](O[C@H]4[C@H](O)[C@@H](O)[C@@H](O[C@H]5[C@H](O)[C@@H](O)[C@@H](O[C@H]6[C@H](O)[C@@H](O)[C@@H](O[C@H]7[C@H](O)[C@@H](O)[C@@H](O[C@H]8[C@H](O)[C@@H](O)[C@@H](O[C@H]1[C@H](O)[C@H]2O)O[C@@H]8CO)O[C@@H]7CO)O[C@@H]6CO)O[C@@H]5CO)O[C@@H]4CO)O[C@@H]3CO [β-Cyclodextrin, β-cyclodextrin]	–	–	–	–	–	–	–	100 % of initial	18 % of initial	0 % of initial	–
OC[C@H]1O[C@@H]2O[C@H]3[C@H](O)[C@@H](O)[C@@H](O[C@H]4[C@H](O)[C@@H](O)[C@@H](O[C@H]5[C@H](O)[C@@H](O)[C@@H](O[C@H]6[C@H](O)[C@@H](O)[C@@H](O[C@H]7[C@H](O)[C@@H](O)[C@@H](O[C@H]1[C@H](O)[C@H]2O)O[C@@H]7CO)O[C@@H]6CO)O[C@@H]5CO)O[C@@H]4CO)O[C@@H]3CO [α-Cyclodextrin, α-cyclodextrin]	–	–	–	–	–	–	–	100 % of initial	20 % of initial	2 % of initial	wheat seed germination rate ([3]; day 0, Table 1): 0 percentage of total seeds; wheat seed germination rate ([3]; day 0, Table 2): 0 percentage of the seeds; wheat seed germination rate ([3]; day 1, Table 1): 0 percentage of total seeds; wheat seed germination rate ([3]; day 1, Table 2): 11 percentage of the seeds; wheat seed germination rate ([3]; day 2, Table 1): 48 percentage of total seeds; wheat seed germination rate ([3]; day 2, Table 2): 18 percentage of the seeds; wheat seed germination rate ([3]; day 3, Table 1): 70 percentage of total seeds; wheat seed germination rate ([3]; day 3, Table 2): 68 percentage of the seeds; wheat seed germination rate ([3]; day 4, Table 1): 85 percentage of total seeds; wheat seed germination rate ([3]; day 4, Table 2): 92 percentage of the seeds
